Here are results for eleven molecules from ChEMBL document CHEMBL1127280, “Imidazolidinones and pyrazolones as novel ACAT inhibitors: Chemistry and biological activity” (Bioorg Med Chem Lett, 1994).

The target of one test is O-acyltransferase (Oryctolagus cuniculus, UniProt G1SFD9). The experiment in a line: In vitro Acyl coenzyme A:cholesterol acyltransferase inhibition by incubation with [14C]oleolyl-CoA and intestinal microsomes isolated from cholesterol-fed rabbits. More on the design: species or system Intestine.
Chain of O-acyltransferase (G1SFD9 1-524): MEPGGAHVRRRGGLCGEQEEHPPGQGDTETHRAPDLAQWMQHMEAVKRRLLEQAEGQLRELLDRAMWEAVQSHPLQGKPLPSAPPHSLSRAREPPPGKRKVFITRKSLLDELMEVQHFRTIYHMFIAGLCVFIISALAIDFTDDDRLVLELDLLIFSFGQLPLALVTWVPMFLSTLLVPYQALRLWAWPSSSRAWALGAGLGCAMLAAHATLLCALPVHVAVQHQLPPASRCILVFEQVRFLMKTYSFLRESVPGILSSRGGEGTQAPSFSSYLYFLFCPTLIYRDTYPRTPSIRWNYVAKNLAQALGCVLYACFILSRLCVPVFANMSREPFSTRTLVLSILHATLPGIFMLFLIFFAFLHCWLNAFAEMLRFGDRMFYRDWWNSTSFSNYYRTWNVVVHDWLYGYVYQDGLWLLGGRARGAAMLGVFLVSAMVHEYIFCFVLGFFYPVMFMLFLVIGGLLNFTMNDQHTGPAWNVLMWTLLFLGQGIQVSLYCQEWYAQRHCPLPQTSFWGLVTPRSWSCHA
The species named for the next test is Rattus norvegicus. In words: Cholesterol lowering activity was assessed in rats expressed as percent change in total cholesterol (TC) in cholic acid-cholesterol-peanut oil fed rats. It counts as functional.

Broadly, the IC50 is the concentration needed to halve the response being measured. Higher therefore signals weaker potency in that assay. With `CCCCCCCCCCC1=NN(c2c(C)cccc2C)C(=O)C1`, at O-acyltransferase, the IC50 was found to be 5 µM. As to `CCCCCCCC/C=C\CCCCCCCC1=NN(c2ccc(F)cc2F)C(=O)C1`, on O-acyltransferase, the IC50 was determined as 5 µM.

On O-acyltransferase, `CCCCCCCC/C=C\CCCCCCCC1=NN(c2ccc([N+](=O)[O-])cc2[N+](=O)[O-])C(=O)C1` showed an IC50 of 5 µM. Moreover, the “Change in TC” value in the test filed under Rattus norvegicus is on record as -26%. The like results for `CCCCCCCC/C=C\CCCCCCCC1=NN(c2c(Cl)cccc2Cl)C(=O)C1` were, in that order, 22.9 µM and -18%. With `CCCCCCCC/C=C\CCCCCCCC1=NN(c2ccc(Cl)cc2Cl)C(=O)C1`, the IC50 against O-acyltransferase came out at 9.9 µM. For `CC(C)c1cccc(C(C)C)c1N1CNC(C(c2ccccc2)c2ccccc2)C1=O` (stereo unspecified), on O-acyltransferase, 3.9 µM corresponded to half-maximal inhibition (IC50).

As to `CC(C)c1cccc(C(C)C)c1N1CN(C(c2ccccc2)c2ccccc2)CC1=O`, the IC50 against O-acyltransferase is 1.3 µM. In the case of `Cc1cccc(C)c1N1N=C(CC(c2ccccc2)c2ccccc2)CC1=O`, the IC50 on O-acyltransferase amounted to 50.8 µM. `CC(C)c1cccc(C(C)C)c1N1CNC(Cc2ccccc2)C1=O` (stereo unspecified) registered an IC50 at O-acyltransferase of 5.5 µM. Besides, the “Change in TC” value in the test filed under Rattus norvegicus is on record as -9%. Turning to `CC(C)c1cccc(C(C)C)c1N1CN(CC(c2ccccc2)c2ccccc2)CC1=O`, the IC50 at O-acyltransferase was found to be 5 µM. In the test listed under Rattus norvegicus, the “Change in TC” value is on record as -6%.

In turn, `CCCCCCCC/C=C\CCCCCCCC1=NN(c2ccc(C)cc2C)C(=O)C1` displayed an IC50 on O-acyltransferase of 5 µM. In addition, the “Change in TC” value in the test filed under Rattus norvegicus is on record as -26%.
